One test concerns the target KRAS G12C (Homo sapiens, UniProt P01116, G12C). The test is described as follows: GDP-GTP exchange assay (KRAS_G12C exchange). It is filed as biochemical. As to conditions: bodipy-GDP loaded KRAS G12C 2.5 nM, SOS1 150 nM, GppNHp; 2 hours pre-incubation, 2 hours reaction; read-out: G12C_exchange. Summed up:
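Fluorescence exchange of bodipy-GDP for GppNHp, SOS1-driven, read at 485/520 nm; IC50 from four-parameter variable-slope fit. Both mutants used 2.5 nM final labelled protein and a 2 h compound pre-incubation. G12C reaction had 500 uM GppNHp and 150 nM SOS1 for 2 h; G12D ran 4 h.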

Test [1] concerns MIA PaCa-2 (KRAS G12C) cells. The test is described as follows: Cellular pERK HTRF assay (KRAS_G12C pERK). The following applies: Homo sapiens, MIA PaCa-2, 4 hours incubation, read-out: G12C_pERK. It is filed as cell-based, human. In outline:
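MIA PaCa-2 cells plated overnight, then exposed to compound for 4 h at 37 °C (G12C compounds). Phospho-ERK1/2 measured in lysates by HTRF (665/620 nm) after overnight antibody incubation; IC50 from percent inhibition versus log concentration.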

The values below come from patent US20210269434A1, “TRICYCLIC COMPOUNDS AS INHIBITORS OF KRAS” (Incyte Corporation, priority 2020, published 2021).

The structures appear in SMILES notation. Bounds are passed on as bounds.

Sequence of KRAS G12C (P01116 1-188 isoform P01116-2 G12C): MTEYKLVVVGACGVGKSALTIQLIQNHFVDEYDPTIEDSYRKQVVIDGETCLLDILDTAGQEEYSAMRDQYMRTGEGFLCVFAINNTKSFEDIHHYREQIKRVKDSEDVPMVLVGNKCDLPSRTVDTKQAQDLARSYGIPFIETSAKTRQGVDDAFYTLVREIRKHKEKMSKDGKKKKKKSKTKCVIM

Regarding `Cc1cccc(-c2c(Cl)cc3c(nc(N4CC(N(C)C)C4)c4ncn([C@H]5CCN(C(=O)/C=C/CN(C)C)[C@H](CC#N)C5)c43)c2F)c1C(F)(F)F` [Example 262, 2-((2S,4S)-4-(8-chloro-4-(3-(dimethylamino)azetidin-1-yl)-6-fluoro-7-(3-methyl-2-(trifluoromethyl)phenyl)-1H-imidazo[4,5-c]quinolin-1-yl)-1-((E)-4-(dimethylamino)but-2-enoyl)piperidin-2-yl)acetonitrile], the IC50 (on KRAS G12C; in test [1]) was not above 100 nM each time.
With `Cc1cc2c(nc(N3CC(C)(N(C)C)C3)c3nnn([C@H]4CCN(C(=O)/C=C/CN(C)C)[C@H](CC#N)C4)c32)c(F)c1-c1c(C)c(Cl)cc2[nH]ncc12` [Example 196a, 2-((2S,4S)-4-(7-(6-chloro-5-methyl-1H-indazol-4-yl)-4-(3-(dimethylamino)-3-methylazetidin-1-yl)-6-fluoro-8-methyl-1H-[1,2,3]triazolo[4,5-c]quinolin-1-yl)-1-((E)-4-(dimethylamino)but-2-enoyl)piperidin-2-yl)acetonitrile], the IC50 (at KRAS G12C; in test [1]) was not above 100 nM each time.
As to `C=CC(=O)N1CC[C@H](n2cnc3c(N4CC(N(C)C)C4)nc4c(F)c(-c5cnccc5C)c(Cl)cc4c32)C[C@H]1CC#N` [Example 108, 2-((2S,4S)-1-acryloyl-4-(8-chloro-4-(3-(dimethylamino)azetidin-1-yl)-6-fluoro-7-(4-methylpyridin-3-yl)-1H-imidazo[4,5-c]quinolin-1-yl)piperidin-2-yl)acetonitrile], the IC50 (at KRAS G12C; in test [1]) was not above 100 nM each time.
With `C=CC(=O)N1CC[C@H](n2nnc3c(N4CC(N(C)C)C4)nc4c(F)c(-c5ccccc5)c(Cl)cc4c32)C[C@H]1CC#N` [Example 154, 2-((2S,4S)-1-acryloyl-4-(8-chloro-4-(3-(dimethylamino)azetidin-1-yl)-6-fluoro-7-phenyl-1H-[1,2,3]triazolo[4,5-c]quinolin-1-yl)piperidin-2-yl)acetonitrile], the IC50 (on KRAS G12C; in test [1]) was not above 100 nM throughout.
Regarding `C=CC(=O)N1CC[C@H](n2cnc3c(-n4ccnc4C)nc4c(F)c(-c5ccc(F)cc5)c(Cl)cc4c32)C[C@H]1CC#N` [Example 123, 2-((2S,4S)-1-acryloyl-4-(8-chloro-6-fluoro-7-(4-fluorophenyl)-4-(2-methyl-1H-imidazol-1-yl)-1H-imidazo[4,5-c]quinolin-1-yl)piperidin-2-yl)acetonitrile], the IC50 (on KRAS G12C; in test [1]) was not above 100 nM in each case.
Regarding `C=CC(=O)N1C[C@H](OC)[C@@H](n2cnc3c(N4CC(N(C)C)C4)nc4c(F)c(-c5cc(O)cc6ccccc56)c(Cl)cc4c32)C1` (relative stereo) [Example 30b, 1-((trans)-3-(8-chloro-4-(3-(dimethylamino)azetidin-1-yl)-6-fluoro-7-(3-hydroxynaphthalen-1-yl)-1H-imidazo[4,5-c]quinolin-1-yl)-4-methoxypyrrolidin-1-yl)prop-2-en-1-one], the IC50 (on KRAS G12C; in test [1]) was not above 100 nM in each case.
Turning to `C=CC(=O)N1CC(n2c(=O)[nH]c3c(=O)n(-c4c(C)ccnc4C(C)C)c4nc(-c5cc(O)cc6ccccc56)c(F)cc4c32)C1` [Example 26, 1-(1-acryloylazetidin-3-yl)-8-fluoro-7-(3-hydroxynaphthalen-1-yl)-5-(2-isopropyl-4-methylpyridin-3-yl)-3,5-dihydro-1H-imidazo[4,5-c][1,8]naphthyridine-2,4-dione], the IC50 is not above 100 nM at KRAS G12C and 1000 to 5000 nM in test [1].
For `C=CC(=O)N1CC[C@H](n2cnc3c(OC[C@H]4CCCN4C)nc4c(F)c(-c5cccc(Cl)c5C)c(Cl)cc4c32)C[C@H]1CC#N` (single isomer, unassigned) [Example 119a], the IC50 (at KRAS G12C; in test [1]) was not above 100 nM throughout.
In the case of `C=CC(=O)N1CC[C@H](n2cnc3c(N4CC(N(C)C)C4)nc4c(F)c(-c5cccc(C)c5)c(Cl)cc4c32)C[C@H]1CC#N` [Example 109, 2-((2S,4S)-1-acryloyl-4-(8-chloro-4-(3-(dimethylamino)-azetidin-1-yl)-6-fluoro-7-(m-tolyl)-1H-imidazo[4,5-c]quinolin-1-yl)piperidin-2-yl)acetonitrile], the IC50 (on KRAS G12C; in test [1]) was not above 100 nM each time.
As to `C=CC(=O)N1CC[C@H](n2cnc3c(N4CC(N(C)C)C4)nc4c(F)c(-c5ccccc5C)c(Cl)cc4c32)C[C@H]1CC#N` [Example 20, 2-((2S,4S)-1-acryloyl-4-(8-chloro-4-(3-(dimethylamino)azetidin-1-yl)-6-fluoro-7-(o-tolyl)-1H-imidazo[4,5-c]quinolin-1-yl)piperidin-2-yl)acetonitrile], the IC50 (on KRAS G12C; in test [1]) was not above 100 nM throughout.
Consider `CC#CC(=O)N1CC[C@H](n2nnc3c(N4CCN(C)CC4=O)nc4c(F)c(-c5cccc(Cl)c5C)c(Cl)cc4c32)C[C@H]1CC#N` [Example 92, 2-((2S,4S)-1-(but-2-ynoyl)-4-(8-chloro-7-(3-chloro-2-methylphenyl)-6-fluoro-4-(4-methyl-2-oxopiperazin-1-yl)-1H-[1,2,3]triazolo[4,5-c]quinolin-1-yl)piperidin-2-yl)acetonitrile], for which the IC50 (at KRAS G12C; in test [1]) was not above 100 nM throughout.
Turning to `Cc1cc2c(nc(N3CC(N(C)C)C3)c3nnn([C@H]4CCN(C(=O)/C=C/CN(C)C)[C@H](CC#N)C4)c32)c(F)c1-c1ccccc1C(F)(F)F` (single isomer, unassigned) [Example 163a], the IC50 (at KRAS G12C; in test [1]) was not above 100 nM each time.
In the case of `C=CC(=O)N1CC[C@H](n2nnc3c(O[C@@H](C)CN(C)C)nc4c(F)c(-c5cccc(C)c5C)c(C)cc4c32)C[C@H]1CC#N` [Example 142, 2-((2S,4S)-1-acryloyl-4-(4-(((S)-1-(dimethylamino)propan-2-yl)oxy)-7-(2,3-dimethylphenyl)-6-fluoro-8-methyl-1H-[1,2,3]triazolo[4,5-c]quinolin-1-yl)piperidin-2-yl)acetonitrile], the IC50 (on KRAS G12C; in test [1]) was not above 100 nM throughout.
As to `C=CC(=O)N1CC[C@H](n2nnc3c(OC[C@@H]4CCCN4C)nc4c(Cl)c(-c5cccc(Cl)c5Cl)c(Cl)cc4c32)C[C@H]1CC#N` [Example 285, 2-((2S,4S)-1-acryloyl-4-(6,8-dichloro-7-(2,3-dichlorophenyl)-4-(((S)-1-methylpyrrolidin-2-yl)methoxy)-1H-[1,2,3]triazolo[4,5-c]quinolin-1-yl)piperidin-2-yl)acetonitrile], the IC50 (on KRAS G12C; in test [1]) was not above 100 nM in each case.
Take `C=CC(=O)N1CCC(n2cnc3c(OC[C@@H]4CCCN4C)nc4c(F)c(-c5cccc6cccc(Cl)c56)c(Cl)cc4c32)C[C@H]1CC#N` (single isomer, unassigned) [Example 215b]: the IC50 (on KRAS G12C; in test [1]) was not above 100 nM each time.
For `CC#CC(=O)N1CC[C@H](n2nnc3c(O[C@@H](C)CN(C)C)nc4c(F)c(-c5cccc(C)c5C)c(C)cc4c32)C[C@H]1CC#N` [Example 146, 2-((2S,4S)-1-(but-2-ynoyl)-4-(4-(((S)-1-(dimethylamino)propan-2-yl)oxy)-7-(2,3-dimethylphenyl)-6-fluoro-8-methyl-1H-[1,2,3]triazolo[4,5-c]quinolin-1-yl)piperidin-2-yl)acetonitrile], the IC50 (at KRAS G12C; in test [1]) was not above 100 nM in each case.
`C=CC(=O)N1CC[C@H](n2nnc3c(N4CC(C)(N(C)C)C4)nc4c(F)c(-c5cccc(C)c5Cl)c(C(F)(F)F)cc4c32)C[C@H]1CC#N` (single isomer, unassigned) [Example 235a]: the IC50 (on KRAS G12C; in test [1]) was not above 100 nM in each case.
Turning to `C=CC(=O)N1CC[C@H](n2nnc3c(N4CC(C)(N(C)C)C4)nc4c(F)c(-c5cccc(C)c5C)c(C)cc4c32)C[C@H]1CC#N` [Example 208, 2-((2S,4S)-1-acryloyl-4-(4-(3-(dimethylamino)-3-methylazetidin-1-yl)-7-(2,3-dimethylphenyl)-6-fluoro-8-methyl-1H-[1,2,3]triazolo[4,5-c]quinolin-1-yl)piperidin-2-yl)acetonitrile], the IC50 (at KRAS G12C; in test [1]) was not above 100 nM each time.
Consider `C=CC(=O)N1CC[C@H](n2cnc3c(N4CC(N(C)C)C4)nc4c(F)c(-c5cccc(Cl)c5C)c(Cl)cc4c32)C[C@H]1CC#N` [Example 61, 2-((2S,4S)-1-acryloyl-4-(8-chloro-7-(3-chloro-2-methylphenyl)-4-(3-(dimethyl-amino)azetidin-1-yl)-6-fluoro-1H-imidazo[4,5-c]quinolin-1-yl)piperidin-2-yl)acetonitrile], for which the IC50 (at KRAS G12C; in test [1]) was not above 100 nM each time.
Consider `CC#CC(=O)N1CC[C@H](n2nnc3c(O[C@@H](C)CN(C)C)nc4c(F)c(-c5ccc(F)cc5)c(Cl)cc4c32)C[C@H]1CC#N` [Example 129, 2-((2S,4S)-1-(but-2-ynoyl)-4-(8-chloro-4-(((S)-1-(dimethylamino)propan-2-yl)oxy)-6-fluoro-7-(4-fluorophenyl)-1H-[1,2,3]triazolo[4,5-c]quinolin-1-yl)piperidin-2-yl)acetonitrile], for which the IC50 (at KRAS G12C; in test [1]) was not above 100 nM each time.
On to `C=CC(=O)N1CC[C@H](n2nnc3c(OC[C@@H]4CCCN4C)nc4c(F)c(-c5cccc(Cl)c5C)c(C)cc4c32)C[C@H]1CC#N` [Example 98, 2-((2S,4S)-1-acryloyl-4-(7-(3-chloro-2-methylphenyl)-6-fluoro-8-methyl-4-(((S)-1-methylpyrrolidin-2-yl)methoxy)-1H-[1,2,3]triazolo[4,5-c]quinolin-1-yl)piperidin-2-yl)acetonitrile], for which the IC50 (at KRAS G12C; in test [1]) was not above 100 nM each time.
